From US20240199587A1, “HETEROCYCLIC COMPOUNDS” (Hoffmann-La Roche Inc., priority 2021, published 2024)

biological target: T1, MAGL (Homo sapiens, UniProt Q99685); assay: 2-AG assay (MAGL inhibitory activity, hydrolysis of 2-arachidonoylglycerol to arachidonic acid followed by mass spectrometry); type: biochemical; conditions: 8 μM 2-arachidonoylglycerol, 15 min pre-incubation, 30 min incubation at RT, RapidFire MS readout
T1 sequence (Q99685 1-303): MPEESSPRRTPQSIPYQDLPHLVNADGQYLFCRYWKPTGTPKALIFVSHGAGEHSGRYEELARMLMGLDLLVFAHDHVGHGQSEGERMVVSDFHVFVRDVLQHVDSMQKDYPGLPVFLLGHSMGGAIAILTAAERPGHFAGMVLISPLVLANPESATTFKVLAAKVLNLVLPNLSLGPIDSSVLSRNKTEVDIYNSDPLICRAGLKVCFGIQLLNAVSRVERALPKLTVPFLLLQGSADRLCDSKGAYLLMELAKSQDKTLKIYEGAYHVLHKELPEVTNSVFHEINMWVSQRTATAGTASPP
In short: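 Human MAGL ([…] final) pre-incubated 15 min at RT with compound in 50 mM TRIS, 1 mM EDTA, 0.01% Tween-20, 2.5% DMSO; 8 μM 2-AG then added for 30 min at RT. Acetonitrile quench with d8-arachidonic acid; arachidonic acid measured by RapidFire SPE–MS/MS, activity from arachidonic acid/d8 ratio.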

SMILES	IC50 [nM]
O=C(N1CC(c2ccc(N3CC(O)(C(F)(F)F)C3)nc2)C1)N1CC2(CC(n3cnc(C4CC4)n3)C2)C1 [Example 206, [6-(3-cyclopropyl-1,2,4-triazol-1-yl)-2-azaspiro[3.3]heptan-2-yl]-[3-[6-[3-hydroxy-3-(trifluoromethyl)azetidin-1-yl]-3-pyridyl]azetidin-1-yl]methanone]	0.9
Cc1cc(C2CN(C(=O)N3CC4(CC(n5cnc(C6CC6)n5)C4)C3)C2)ccc1OC(F)(F)F [Example 182, [6-(3-cyclopropyl-1,2,4-triazol-1-yl)-2-azaspiro[3.3]heptan-2-yl]-[3-[3-methyl-4-(trifluoromethoxy)phenyl]azetidin-1-yl]methanone]	2580
O=C(N1CC(OCc2ccc(C(F)(F)F)cc2)C1)N1CC2(CC(n3cnc(N4CCC4)n3)C2)C1 [Example 177, (6-(3-(azetidin-1-yl)-1H-1,2,4-triazol-1-yl)-2-azaspiro[3.3]heptan-2-yl)(3-((4-(trifluoromethyl)benzyl)oxy)azetidin-1-yl)methanone]	141
Cc1cc(C(=O)N2CC3(CC(n4cnc(Cl)n4)C3)C2)cnc1OCC1(C(F)(F)F)CC1 [Example 174, [6-(3-chloro-1,2,4-triazol-1-yl)-2-azaspiro[3.3]heptan-2-yl]-[5-methyl-6-[[1-(trifluoromethyl)cyclopropyl]methoxy]-3-pyridyl]methanone]	183
O=C(N1CC(OCc2ccc(C(F)(F)F)cc2)C1)N1CC2(CC(n3cnc(C4CC4)c3)C2)C1 [Example 101, [6-(4-cyclopropylimidazol-1-yl)-2-azaspiro[3.3]heptan-2-yl]-[3-[[4-(trifluoromethyl)phenyl]methoxy]azetidin-1-yl]methanone]	42.1
CC(C)(C)c1nc(-c2ccc(C(=O)N3CC4(CC(n5cnc(C#N)n5)C4)C3)cc2)no1 [Example 20, 1-[2-[4-(5-tert-butyl-1,2,4-oxadiazol-3-yl)benzoyl]-2-azaspiro[3.3]heptan-6-yl]-1,2,4-triazole-3-carbonitrile]	82
O=C(N1CC(OCc2ccc(F)cc2C(F)(F)F)C1)N1CC2(CC(n3cnc(C4CC4)n3)C2)C1 [Example 78, (6-(3-cyclopropyl-1H-1,2,4-triazol-1-yl)-2-azaspiro[3.3]heptan-2-yl)(3-((4-fluoro-2-(trifluoromethyl)benzyl)oxy)azetidin-1-yl)methanone]	12.2
O=C(N1CC2(CC(n3cnc(C4CC4)n3)C2)C1)N1CC2(C1)CN(S(=O)(=O)c1cccc3nonc13)C2 [Example 250, [2-(2,1,3-benzoxadiazol-4-ylsulfonyl)-2,6-diazaspiro[3.3]heptan-6-yl]-[6-(3-cyclopropyl-1,2,4-triazol-1-yl)-2-azaspiro[3.3]heptan-2-yl]methanone]	15.1
O=C(N1CC(OCc2ccc(Cl)cc2F)C1)N1CC2(CC(n3cnc(C4CC4)c3)C2)C1 [Example 108, [3-[(4-chloro-2-fluoro-phenyl)methoxy]azetidin-1-yl]-[6-(4-cyclopropylimidazol-1-yl)-2-azaspiro[3.3]heptan-2-yl]methanone]	25
O=C(N1CC(Oc2cnc(Cl)c(C3CC3)c2)C1)N1CC2(CC(n3cnc(C4CC4)n3)C2)C1 [Example 254, [3-[(6-chloro-5-cyclopropyl-3-pyridyl)oxy]azetidin-1-yl]-[6-(3-cyclopropyl-1,2,4-triazol-1-yl)-2-azaspiro[3.3]heptan-2-yl]methanone]	17
O=C(N1CC2(CC(Oc3ccc(Cl)nc3)C2)C1)N1CC2(CC(n3cnc(C4CC4)n3)C2)C1 [Example 83, (6-((6-chloropyridin-3-yl)oxy)-2-azaspiro[3.3]heptan-2-yl)(6-(3-cyclopropyl-1H-1,2,4-triazol-1-yl)-2-azaspiro[3.3]heptan-2-yl)methanone]	5.2
O=C(N1C[C@H]2CC(Oc3ccc(C(F)(F)F)cc3F)C[C@H]2C1)N1CC2(CC(n3cnc(C4CC4)n3)C2)C1 (mixture of isomers) [Example 89, [6-(3-cyclopropyl-1,2,4-triazol-1-yl)-2-azaspiro[3.3]heptan-2-yl]-[rac-(3aS,6aR)-5-[2-fluoro-4-(trifluoromethyl)phenoxy]-3,3a,4,5,6,6a-hexahydro-1H-cyclopenta[c]pyrrol-2-yl]methanone]	2.5

Next, values leading:

IC50 [nM]	SMILES
544	O=C(N1CC(OCc2ccc(S(=O)(=O)C(F)(F)F)cc2)C1)N1CC2(CC(c3ccc(C(F)(F)F)nc3)C2)C1 [Example 520, [6-[6-(trifluoromethyl)-3-pyridyl]-2-azaspiro[3.3]heptan-2-yl]-[3-[[4-(trifluoromethylsulfonyl)phenyl]methoxy]azetidin-1-yl]methanone]
37.2	O=C(N1CC2(CC(NC(=O)C3(C(F)(F)F)CC3)C2)C1)N1CC2(CC(n3cnc(C4CC4)n3)C2)C1 [Example 277, N-[2-[6-(3-cyclopropyl-1,2,4-triazol-1-yl)-2-azaspiro[3.3]heptane-2-carbonyl]-2-azaspiro[3.3]heptan-6-yl]-1-(trifluoromethyl) cyclo-propanecarboxamide]
14.1	O=C(N1CC2(CCN(Cc3ccc(C(F)(F)F)cn3)CC2)C1)N1CC2(CC(n3cnc(C4(O)CC4)n3)C2)C1 [Example 391, [6-[3-(1-hydroxycyclopropyl)-1,2,4-triazol-1-yl]-2-azaspiro[3.3]heptan-2-yl]-[7-[[5-(trifluoromethyl)-2-pyridyl]methyl]-2,7-diazaspiro[3.5]nonan-2-yl]methanone]
13.9	N#Cc1cc(CC2CC3(C2)CN(C(=O)N2CC4(CC(c5ccc(C(F)(F)F)nc5)C4)C2)C3)ccc1C(F)(F)F [Example 536, 2-(trifluoromethyl)-5-[[2-[6-[6-(trifluoromethyl)-3-pyridyl]-2-azaspiro[3.3]heptane-2-carbonyl]-2-azaspiro[3.3]heptan-6-yl]methyl]benzonitrile]
2370	O=C(N1CC(OCc2ccc(F)cc2Cl)C1)N1CC2(CC(c3cncc(F)c3)C2)C1 [Example 513, [3-[(2-chloro-4-fluoro-phenyl)methoxy]azetidin-1-yl]-[6-(5-fluoro-3-pyridyl)-2-azaspiro[3.3]heptan-2-yl]methanone]
27.5	O=C(N1CC2(CC(n3cnc(C4CC4)n3)C2)C1)N1CC2(C1)CN(S(=O)(=O)Cc1ccccc1)C2 [Example 265, (2-benzylsulfonyl-2,6-diazaspiro[3.3]heptan-6-yl)-[6-(3-cyclopropyl-1,2,4-triazol-1-yl)-2-azaspiro[3.3]heptan-2-yl]methanone]
1.63	N=S(=O)(c1cccc(CC2CC3(C2)CN(C(=O)N2CC4(CC(n5cnc(C6(O)CC6)n5)C4)C2)C3)c1)C(F)(F)F (single isomer, unassigned) [Example 406, [6-[3-(1-hydroxycyclopropyl)-1,2,4-triazol-1-yl]-2-azaspiro[3.3]heptan-2-yl]-[6-[[3-(trifluoromethyl-sulfonimidoyl)phenyl]methyl]-2-azaspiro[3.3]heptan-2-yl]methanone]
0.71	O=C(N1CC2(CC(NS(=O)(=O)c3cccc(C(F)(F)F)c3)C2)C1)N1CC2(CC(n3cnc(C(F)(F)F)n3)C2)C1 [Example 454, 3-(trifluoromethyl)-N-[2-[6-[3-(trifluoromethyl)-1,2,4-triazol-1-yl]-2-azaspiro[3.3]heptane-2-carbonyl]-2-azaspiro[3.3]heptan-6-yl]benzenesulfonamide]
797	Cn1cc(S(=O)(=O)N2CC3(CN(C(=O)N4CC5(CC(n6cnc(C7CC7)n6)C5)C4)C3)C2)cn1 [Example 331, [6-(3-cyclopropyl-1,2,4-triazol-1-yl)-2-azaspiro[3.3]heptan-2-yl]-[2-(1-methylpyrazol-4-yl)sulfonyl-2,6-diazaspiro[3.3]heptan-6-yl]methanone]
0.21	O=C(N1CC2(CC(n3cnc(C4(O)CC4)n3)C2)C1)N1CC2(CC[C@H](Cc3cccc(S(=O)(=O)C(F)(F)F)c3)C2)C1 [Example 361, [6-[3-(1-hydroxycyclopropyl)-1,2,4-triazol-1-yl]-2-azaspiro[3.3]heptan-2-yl]-[(6R)-6-[[3-(trifluoromethylsulfonyl)phenyl]methyl]-2-azaspiro[3.4]octan-2-yl]methanone]
12.1	CS(=O)(=O)c1ccccc1CN1CC2(C1)CN(C(=O)N1CC3(CC(n4cnc(C5CC5)n4)C3)C1)C2 [Example 502, [6-(3-cyclopropyl-1,2,4-triazol-1-yl)-2-azaspiro[3.3]heptan-2-yl]-[6-[(2-methylsulfonylphenyl)methyl]-2,6-diazaspiro[3.3]heptan-2-yl]methanone]
4.88	O=C(N1CC(C23CC(Cc4nnc(C5CC5)[nH]4)(C2)C3)C1)N1CC2(CC(n3cnc(C4CC4)n3)C2)C1 [Example 384, [6-(3-cyclopropyl-1,2,4-triazol-1-yl)-2-azaspiro[3.3]heptan-2-yl]-[3-[3-[(5-cyclopropyl-4H-1,2,4-triazol-3-yl)methyl]-1-bicyclo[1.1.1]pentanyl]azetidin-1-yl]methanone]
5.55	CC1(Cc2nnc(-c3ccc(C4CN(C(=O)N5CC6(CC(n7cnc(C(F)(F)F)n7)C6)C5)C4)cc3)[nH]2)CC1 [Example 425, [3-[4-[5-[(1-methylcyclopropyl)methyl]-4H-1,2,4-triazol-3-yl]phenyl]azetidin-1-yl]-[6-[3-(trifluoromethyl)-1,2,4-triazol-1-yl]-2-azaspiro[3.3]heptan-2-yl]methanone]
3370	CC(C)(C)c1nc(-c2ccc(C(=O)N3CC4(CC(n5cc(C#N)cn5)C4)C3)cc2)no1 [compound 21, 1-[2-[4-(5-tert-butyl-1,2,4-oxadiazol-3-yl)benzoyl]-2-azaspiro[3.3]heptan-6-yl]pyrazole-4-carbonitrile]
